Source: US6060516A, “N^1 -propargylhydrazines, N^2 -propargylhydrazines and their analogs for the treatment of depression, anxiety and neurodegeneration” (CV Technologies, Inc., priority 1998, dated 2000)

How the values were obtained:
[1] = system: NA, DA, 5-HT, 5-HIAA and DOPAC concentrations in rat hypothalamus; assay: Rat hypothalamus amine and amine metabolite concentrations; type: in vivo
Experimental: The effects of various doses of CVT-P040 on the concentrations of hypothalamus amine neurotransmitters and their metabolites were evaluated by examining concentrations of noradrenaline (NA), dopamine (DA), 5-hydroxytryptamine (5-HT), 5-hydroxyindoleacetic acid (5-HIAA) and 3,4-dihydroxyphenylacetic acid (DOPAC) in rat hypothalami 5 hours after the injection of the drug. […] The brains were removed and divided in half. One half of the brain was frozen in isopentane on dry ice and retained for estimates of amino acid neurotransmitter concentrations. The other half had the hypothalamus removed and frozen on dry ice for later estimates of amines and their metabolites according to the method of Sloley, B. D. and Goldberg J. I. (1991), Determination of γ-glutamyl conjugates of monoamines by means of high-performance liquid chromatography with electrochemical detection and application to gastropod tissues, J. Chromatog. 567: 49-56. The rest of the brain was frozen on dry ice for ex vivo examination of MAO activity as described earlier.

[2] = system: rat brain and liver monoamine oxidase-B; assay: Monoamine oxidase-B inhibiting activity ex vivo; type: in vivo
Experimental: Radiolabelled β-phenylethylamine was employed as a substrate for monoamine oxidase-B. The compounds of interest were either injected intraperitoneally in DMSO or administered by gavage in water for various periods. The animals were killed by decapitation and the brains and livers immediately removed and frozen until assayed for monoamine oxidase-B activity. Tissues were homogenized and appropriately diluted in buffer prior to incubation. Incubations proceeded at 37° C. for 10 minutes. Incubation was terminated by the addition of acid and the radiolabelled product (phenylacetic acid) was extracted and quantified by liquid scintillation counting procedures. Incubations were done in triplicate and incubations containing phenelzine were included for comparison. The percent inhibition of monoamine oxidase-B activity compared to controls containing no drug was calculated.
Values are the mean ± the standard error based on (n) determinations.
Oral doses were administered as 75 μmol/kg on day 1, 75 μmol/kg on
day 2 and the animals were killed 5 hours later.

[3] = system: valine, alanine and gamma-aminobutyric acid (GABA) concentrations in rat brain; assay: Brain valine, alanine and gamma-aminobutyric acid (GABA) concentrations; type: in vivo; conditions: for GABA / Valine: 2 × 75 μmol/kg per os
[4] = biological target: T1, rat brain monoamine oxidase-B (Rattus norvegicus, UniProt P19643); assay: Monoamine oxidase-B inhibiting activity in vitro (radiochemical, β-phenylethylamine substrate, rat brain homogenate); type: biochemical; conditions: for inhibition at 100 µM: 1 × 10^-4 M; for inhibition at 10 µM: 1 × 10^-5 M; for inhibition at 1 µM: 1 × 10^-6 M; for inhibition at 0.1 µM: 1 × 10^-7 M; for inhibition at 0.01 µM: 1 × 10^-8 M
T1 construct: appropriately diluted homogenates of rat brain or liver; from tissue; host or cells: rat brain or liver homogenate
T1 sequence (P19643 1-520): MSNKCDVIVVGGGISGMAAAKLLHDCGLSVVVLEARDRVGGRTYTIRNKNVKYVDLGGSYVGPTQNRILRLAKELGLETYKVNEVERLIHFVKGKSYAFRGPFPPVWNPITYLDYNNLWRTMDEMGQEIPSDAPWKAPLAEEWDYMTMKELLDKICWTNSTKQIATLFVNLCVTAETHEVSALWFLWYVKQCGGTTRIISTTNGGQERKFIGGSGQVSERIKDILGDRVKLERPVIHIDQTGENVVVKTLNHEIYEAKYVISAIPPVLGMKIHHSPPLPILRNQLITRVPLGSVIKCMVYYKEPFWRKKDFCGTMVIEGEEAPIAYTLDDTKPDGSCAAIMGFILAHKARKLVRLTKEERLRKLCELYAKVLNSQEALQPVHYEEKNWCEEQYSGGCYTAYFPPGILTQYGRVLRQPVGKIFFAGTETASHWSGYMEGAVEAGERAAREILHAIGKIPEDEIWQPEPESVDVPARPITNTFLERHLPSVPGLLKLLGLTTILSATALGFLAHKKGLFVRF
Experimental: Radiolabelled β-phenylethylamine was employed as a substrate for monoamine oxidase-B. Various concentrations of the compounds of interest were incubated in appropriately diluted homogenates of rat brain or liver in a 0.2 M potassium phosphate buffer. Incubations proceeded at 37° C. for 10 minutes. Incubation was terminated by the addition of acid and the radiolabelled product (phenylacetaldehyde and phenylacetic acid) was extracted and quantified by liquid scintillation counting procedures. Incubations were done in triplicate and incubations containing phenelzine were included for comparison. The percent inhibition of monoamine oxidase-B activity compared to controls containing no drug was calculated.

[5] = brain, 5.75 μmol/kg, 5 hr, i.p. in 10% DMSO (Table 4, MAO-B by title)
[6] = brain, 150 μmol/kg, 5 hr, i.p. in 10% DMSO (Table 4, MAO-B by title)
[7] = brain, 2 × 75 μmol/kg per os (Table 4, MAO-B by title)
[8] = liver, 5.75 μmol/kg, 5 hr, i.p. in 10% DMSO (Table 4, MAO-B by title)
[9] = liver, 2 × 75 μmol/kg per os (Table 4, MAO-B by title)

## C#CCN(N)CCc1ccccc1 [CVT-P040, N^1 -propargylphenelzine]
[1]; 0.58 μmol/kg, 5 hr, ip
  5-HIAA: 350 ± 28 ng/g
  5-HT: 652 ± 69 ng/g
  DA: 716 ± 82 ng/g
  DOPAC: 77 ± 9 ng/g
  NA: 1155 ± 81 ng/g
[1]; 5.75 μmol/kg, 5 hr, ip
  5-HIAA: 327 ± 26 ng/g
  5-HT: 634 ± 58 ng/g
  DA: 717 ± 85 ng/g
  DOPAC: 80 ng/g
  NA: 1332 ± 98 ng/g
[1]; 57.5 μmol/kg, 5 hr, ip
  5-HIAA: 294 ± 22 ng/g
  5-HT: 1324 ng/g
  DA: 753 ± 99 ng/g
  DOPAC: 49 ng/g
  NA: 1672 ± 82 ng/g
[1]; 150 μmol/kg, 5 hr, ip
  5-HIAA: 131 ± 8 ng/g
  5-HT: 1497 ng/g
  DA: 522 ± 28 ng/g
  DOPAC: 45 ± 4 ng/g
  NA: 2050 ± 202 ng/g
[1]; 173 μmol/kg, 5 hr, ip
  5-HIAA: 148 ± 10 ng/g
  5-HT: 1509 ng/g
  DA: 865 ± 19 ng/g
  DOPAC: 30 ng/g
  NA: 1867 ± 253 ng/g
[1]; 2 × 75 μmol/kg per os
  5-HIAA: 197 ng/g
  5-HT: 1215 ± 36 ng/g
  DA: 487 ± 47 ng/g
  DOPAC: 50 ± 3 ng/g
  NA: 2230 ± 101 ng/g
[1]; dose dependent, in words
  5-HIAA concentrations: significantly reduced 5-HIAA and DOPAC concentrations
  5-HT concentrations: significantly elevated 5-HT and NA concentrations
  DOPAC concentrations: significantly reduced 5-HIAA and DOPAC concentrations
  NA concentrations: significantly elevated 5-HT and NA concentrations
[1]; equivalent doses, in words
  reduction in 5-hydroxyindoleacetic acid concentrations compared with phenelzine: comparable to that determined with equivalent doses of phenelzine
[2]; brain, 0.58 μmol/kg, 5 hr, i.p. in 10% DMSO (Table 4, MAO-B by title)
  % Inhibition of Monoamine Oxidase-B: -4.7 ± 2.0%
[2]; [5]
  % Inhibition of Monoamine Oxidase-B: 11.8 ± 5.1%
[2]; brain, 57.5 μmol/kg, 5 hr, i.p. in 10% DMSO (Table 4, MAO-B by title)
  % Inhibition of Monoamine Oxidase-B: 66.1 ± 6.9%
[2]; [6]
  % Inhibition of Monoamine Oxidase-B: 85.5 ± 1.7%
[2]; brain, 173 μmol/kg, 5 hr, i.p. in 10% DMSO (Table 4, MAO-B by title)
  % Inhibition of Monoamine Oxidase-B: 93.2 ± 0.8%
[2]; [7]
  % Inhibition of Monoamine Oxidase-B: 85.4 ± 2.1%
[2]; liver, 0.58 μmol/kg, 5 hr, i.p. in 10% DMSO (Table 4, MAO-B by title)
  % Inhibition of Monoamine Oxidase-B: 1.1 ± 5.4%
[2]; [8]
  % Inhibition of Monoamine Oxidase-B: 29.3 ± 2.8%
[2]; liver, 57.5 μmol/kg, 5 hr, i.p. in 10% DMSO (Table 4, MAO-B by title)
  % Inhibition of Monoamine Oxidase-B: 64.0 ± 5.5%
[2]; liver, 173 μmol/kg, 5 hr, i.p. in 10% DMSO (Table 4, MAO-B by title)
  % Inhibition of Monoamine Oxidase-B: 87.9 ± 1.0%
[2]; [9]
  % Inhibition of Monoamine Oxidase-B: 82.3 ± 2.3%
[3]
  GABA: 329 ± 43 µg/g
  Valine: 25.4 ± 1.8 µg/g
[4]
  inhibition at 100 µM: 99.7%
  inhibition at 10 µM: 97.9%
  inhibition at 1 µM: 88.8%
  inhibition at 0.1 µM: 59.8%
  inhibition at 0.01 µM: 19.9%

## C#CCN(CCc1ccccc1)NC(C)=O [CVT-P041, N^1 -propargyl-N^2 -acetylphenelzine]
[1]; 150 μmol/kg, 5 hr, ip
  5-HIAA: 179 ± 6 ng/g
  5-HT: 1100 ng/g
  DA: 461 ± 34 ng/g
  DOPAC: 91 ± 6 ng/g
  NA: 2141 ± 86 ng/g
[1]; 2 × 75 μmol/kg per os
  5-HIAA: 228 ± 17 ng/g
  DOPAC: 50 ng/g
  NA: 1749 ng/g
[2]; [6]
  % Inhibition of Monoamine Oxidase-B: 77.6 ± 0.4%
[2]; [7]
  % Inhibition of Monoamine Oxidase-B: 73.6 ± 2.2%
[2]; [9]
  % Inhibition of Monoamine Oxidase-B: 97.4 ± 0.2%
[3]
  GABA: 300 ± 22 µg/g
  Valine: 26.4 ± 1.4 µg/g
[4]
  inhibition at 100 µM: 92.7%
  inhibition at 10 µM: 71.3%
  inhibition at 1 µM: 28.8%
  inhibition at 0.1 µM: 6.2%
  inhibition at 0.01 µM: -2%

## NNCCc1ccccc1 [phenelzine, 1-(2-phenyl) ethylhydrazine, reference compound]
[1]; 5.75 μmol/kg, 5 hr, ip
  5-HIAA: 334 ± 23 ng/g
  5-HT: 755 ng/g
  DA: 544 ± 66 ng/g
  DOPAC: 89 ± 7 ng/g
  NA: 1468 ± 119 ng/g
[1]; 150 μmol/kg, 5 hr, ip
  5-HIAA: 131 ng/g
  5-HT: 1583 ± 95 ng/g
  DA: 385 ng/g
  DOPAC: 51 ± 4 ng/g
  NA: 2113 ± 102 ng/g
[1]; 2 × 75 μmol/kg per os
  5-HIAA: 167 ng/g
  DOPAC: 54 ± 4 ng/g
  NA: 2148 ± 171 ng/g
[2]; [5]
  % Inhibition of Monoamine Oxidase-B: -2.7 ± 5.6%
[2]; [6]
  % Inhibition of Monoamine Oxidase-B: 83.3 ± 2.3%
[2]; [7]
  % Inhibition of Monoamine Oxidase-B: 76.4 ± 3.4%
[2]; [8]
  % Inhibition of Monoamine Oxidase-B: 18.1 ± 5.8%
[2]; [9]
  % Inhibition of Monoamine Oxidase-B: 95.6 ± 1.0%
[3]
  GABA: 733 µg/g
  Valine: 24.3 ± 0.8 µg/g
[3]; phenelzine
  elevation of alanine levels: about 4 fold
[3]; phenelzine 150 pmol/kg (so in the source), in words
  brain GABA concentrations: caused elevations in brain GABA concentrations
[4]
  inhibition at 100 µM: 100%
  inhibition at 10 µM: 100%
  inhibition at 1 µM: 90.1%
  inhibition at 0.1 µM: 18.3%
  inhibition at 0.01 µM: 6.9%
